Results: patent US5489609A (Zaidan Hoijn Seisan Kaihatsu Kagaku Kenkyusho, priority 1992, dated 1996)

Legend:
[1] = system: Hepatopathy in mice (carbon tetrachloride); test: Anti-hepatitis test: hepatopathy in mice (carbon tetrachloride); type: in vivo, ddy strain male mice; conditions: for ALT, mean ± S.D. / AST, mean ± S.D.: 200 mg/kg orally 3 h after carbon tetrachloride, blood 24 h after carbon tetrachloride, * p < 0.05; for suppressory activity (hepatopathy in mice): 200 mg/kg orally, in words
Description: A group of 8 ddy strain male mice (weighing about 30 g) kept fasting from the previous day was treated by intraperitoneal injection of 0.5% carbon tetrachloride in olive oil at a dose of 0.6 ml and thereafter allowed free access to food. Three hours after the administration of carbon tetrachloride, the test compound suspended in powdered gum arabic was given to the animals orally at a dose of 200 mg/kg, and blood samples were drawn from the mice under anesthesia with ether through the abdominal descending aorta 24 hours after the administration of carbon tetrachloride. The collected blood was centrifuged at a rate of 3,000 rpm for 15 min, followed by measurement of the activities of aspartate transaminase (AST) and alanine transaminase (ALT) by means of the Lippie method.

[2] = system: isolated liver cells of rats; test: Disorder of isolated liver cells (carbon tetrachloride vapor; ALT and AST leached out); type: cell-based; conditions: for ALT, mean ± S.D. / AST, mean ± S.D.: 37° C., 30 min, * p < 0.05
Description: Isolated liver cells of rats were prepared by means of the Segren's collagenase irrigation method, whereby a liver cell suspension was prepared to a concentration of […]. Into 2 ml of the suspension placed in an Erlenmeyer flask was put a test tube of about 0.5 ml capacity containing a 25% carbon tetrachloride solution in olive oil to saturate the reaction system with carbon tetrachloride vapor, and after the flask was tightly stoppered, preincubation was carried out at 37° C. for 30 min. One ml of a solution of the test compound in Hunk's solution was added to the suspension of liver cells, while 1 ml of Hunk's solution was added to a control. After the reaction was allowed to proceed at 37° C. for 30 min, a specifically determined volume of the reaction solution was pipetted out and immediately centrifuged under 500 g for 30 seconds, and ALT and AST leached out into the supernatant liquid were determined for activity by the Lippie method.

acetaldehyde toxicity = test: Protective activity against acetaldehyde toxicity (death rate within 24 hours); type: in vivo, Rats; conditions: for Death rate / No. of dead animals (n/10): 30 min before acetaldehyde 1,200 mg/kg, 24 h
Description: Rats kept fasting with a supply of drinking water were weighed and divided into groups in such a manner that the mean body weight was uniform among the groups, with each group consisting of 10 heads. The rats were given acetaldehyde orally at a dose of 1,200 mg/kg, and the death rate within 24 hours was determined, wherein the test drug substances were administered orally 30 min before the application of acetaldehyde, with the vehicle (0.5% aqueous sodium carboxymethylcellulose) alone being given to a control group.

[3] = system: Stomach injury with hydrochloric acid/ethanol; test: Anti-ulcer test: stomach injury with hydrochloric acid/ethanol; type: in vivo, male rats of KBL Wistar strain
Description: The rats were divided into groups each consisting of 8 heads in such a way that their mean body weights were nearly uniform among the groups, treated by oral administration of hydrochloric acid/ethanol (0.15 mole hydrochloric acid solution in 80% ethanol) at a dose of 5 ml/kg body weight and sacrificed through cervical vertebrae dislocation 1 hour after administration. The stomachs were removed and treated with formalin, and individual ulcers formed in the glandular portion of the stomach were measured in length (mm), with the measured ulcer lengths summed for each rat. The test compound was suspended in a 0.5% aqueous solution of sodium carboxymethylcellulose, and the suspension was given to the test group orally at a dose of 10 ml/kg body weight 30 min before administration of hydrochloric acid/ethanol, whereas the vehicle (0.5% aqueous sodium carboxymethyl-cellulose) alone was applied to a control group.

[4] = system: Stomach injury through water-immersion constraint stress; test: Anti-ulcer test: stomach injury through water-immersion constraint stress; type: in vivo, male rats of KBL Wistar strain
Description: The rats were divided into groups each consisting of 8 heads in such a way that their mean body weights were nearly uniform among the groups, stress-loaded by soaking the animals placed in a stress cage of Univ. of Tokyo type in a water tank at 23° C. up to the xiphoid and then sacrificed through cervical vertebrae dislocation 7.5 hours later. The stomachs were removed and treated with formalin, and individual ulcers formed in the glandular portion of the stomach were measured in length (mm), with the measured ulcer lengths being summed for each rat. The test compound, suspended in a 0.5% aqueous solution of sodium carboxymethylcellulose, was given to the test group orally at a dose of 10 ml/kg body weight 30 min before the water-soaking constraint, whereas the vehicle alone was applied to a control group.

[5] = system: Rats of KBL Wistar strain; test: Acute toxicity test; type: in vivo; conditions: 7 day period
Description: Rats of KBL Wistar strain (weighing about […]), divided into groups each consisting of 3 heads, were treated through oral administration of the test compound suspended in powder gum arabic, followed by observation for any abnormalities over a 7 day period to find the number of dead animals.

[6] = Pharmacological tests (general statement on anti-hepatitis, liver function and anti-ulcer activity); type: in vivo; conditions: in words
[7] = conc. of test soln. 0.0125 mg/dl
[8] = conc. of test soln. 0.025 mg/dl
[9] = 50 mg/kg orally, vs Vehicle No. 1

SMILES: N[C@@H](CCC(=O)N[C@@H](CS)C(=O)NCC(=O)O)C(=O)O [Glutathione]
- ALT, mean ± S.D. [1]: 12030.2 ± 1204.5 IU
- AST, mean ± S.D. [1]: 11423.3 ± 1960.8 IU
- suppressory activity (hepatopathy in mice) [1]: none of 2-aminoethanesulfonic acid, glutathione and glycyrrhizin that were used as controls at the same dose developed suppressory activity

SMILES: CC1(C)[C@@H](O[C@H]2O[C@H](C(=O)O)[C@@H](O)[C@H](O)[C@H]2O[C@@H]2O[C@H](C(=O)O)[C@@H](O)[C@H](O)[C@H]2O)CC[C@]2(C)[C@H]3C(=O)C=C4[C@@H]5C[C@@](C)(C(=O)O)CC[C@]5(C)CC[C@@]4(C)[C@]3(C)CC[C@@H]12 [Glycyrrhizin]
- ALT, mean ± S.D. [1]: 13362.1 ± 1753.1 IU
- AST, mean ± S.D. [1]: 12367.6 ± 1102.1 IU
- suppressory activity (hepatopathy in mice) [1]: none of 2-aminoethanesulfonic acid, glutathione and glycyrrhizin that were used as controls at the same dose developed suppressory activity

SMILES: NCCS(=O)(=O)[O-].NCCS(=O)(=O)[O-].[Zn+2] [TTZ, Bis(2-aminoethanesulfonic acid)zinc]
- ALT, mean ± S.D. [1]: 8899.4 ± 927.9 IU
- AST, mean ± S.D. [1]: 7256.9 ± 1464.7 IU
- suppressory activity (hepatopathy in mice) [1]: significant suppressory activity equal to that of FTZ
- ALT, mean ± S.D. [2, 7]: 944.7 ± 61.7 IU
- AST, mean ± S.D. [2, 7]: 327.9 ± 36.6 IU
- ALT, mean ± S.D. [2, 8]: 637.2 ± 93.7 IU
- AST, mean ± S.D. [2, 8]: 125.7 ± 48.2 IU
- ALT, mean ± S.D. ([2]; conc. of test soln. 0.05 mg/dl): 649.1 ± 42.4 IU
- AST, mean ± S.D. ([2]; conc. of test soln. 0.05 mg/dl): 68.2 ± 7.5 IU
- ALT, mean ± S.D. ([2]; conc. of test soln. 0.1 mg/dl): 525.1 ± 26.0 IU
- AST, mean ± S.D. ([2]; conc. of test soln. 0.1 mg/dl): 44.3 ± 11.1 IU
- suppressory activity (isolated liver cells) ([2]; in words): suppressory activity equal to that of FTZ but clearly superior to that of 2-aminoethanesulfonic acid alone
- Death rate (acetaldehyde toxicity; 150 mg/kg orally): 30%
- No. of dead animals (n/10) (acetaldehyde toxicity; 150 mg/kg orally): 3/10
- Death rate (acetaldehyde toxicity; 300 mg/kg orally): 0%
- No. of dead animals (n/10) (acetaldehyde toxicity; 300 mg/kg orally): 0/10
- protective activity against the lethal toxicity of acetaldehyde (acetaldehyde toxicity; in words): distinct protective activity against the lethal toxicity of acetaldehyde at lower doses than FTZ, which activity was shown to be more potent than that of 2-aminoethanesulfonic acid
- Incidence of ulcer ([3]; 12.5 mg/kg orally): 8/8
- Ulcer coefficient (mm) mean ± S.E. ([3]; 12.5 mg/kg orally): 32.2 ± 4.9 mm
- Suppression % ([3]; 12.5 mg/kg orally, vs Vehicle No. 3): 11.8%
- Incidence of ulcer ([3]; 25 mg/kg orally): 8/8
- Ulcer coefficient (mm) mean ± S.E. ([3]; 25 mg/kg orally): 24.6 ± 8.8 mm
- Suppression % ([3]; 25 mg/kg orally, vs Vehicle No. 2): 63.3%
- Incidence of ulcer ([3]; 50 mg/kg orally): 5/8
- Ulcer coefficient (mm) mean ± S.E. ([3]; 50 mg/kg orally, * P < 0.01): 2.2 ± 1.1 mm
- Suppression % [3, 9]: 96.3%
- suppressory activity in the antiulcer test ([3]; in words, refers to both anti-ulcer tests): improved suppressory activity in the antiulcer test, as compared with FTZ used as a control
- UD50 (mg/kg) (95% C.L.) ([3]; oral, 30 min before hydrochloric acid/ethanol): 22.8 mg/kg
- Incidence of ulcer ([4]; 50 mg/kg orally): 8/8
- Ulcer coefficient (mm) mean ± S.E. ([4]; 50 mg/kg orally): 19.9 ± 4.6 mm
- Suppression % [4, 9]: 37.6%
- Incidence of ulcer ([4]; 100 mg/kg orally): 8/8
- Ulcer coefficient (mm) mean ± S.E. ([4]; 100 mg/kg orally, * p < 0.01): 9.8 ± 2.3 mm
- Suppression % ([4]; 100 mg/kg orally, vs Vehicle No. 2): 57.2%
- Incidence of ulcer ([4]; 150 mg/kg orally): 8/8
- Ulcer coefficient (mm) mean ± S.E. ([4]; 150 mg/kg orally, ** p < 0.01): 7.6 ± 1.4 mm
- Suppression % ([4]; 150 mg/kg orally, vs Vehicle No. 3): 78.1%
- UD50 (mg/kg) (95% C.L.) ([4]; oral, 30 min before water-soaking constraint): 72.8 mg/kg
- Nd/No (No. of dead animals / total No.) ([5]; 1,250 mg/kg oral): 0/3
- Nd/No (No. of dead animals / total No.) ([5]; 2,500 mg/kg oral): 0/3
- Nd/No (No. of dead animals / total No.) ([5]; 5,000 mg/kg oral): 0/3
- death of animals ([5]; doses up to 5,000 mg/kg oral, in words): did not cause any animal to die
- anti-hepatitis, liver function improving and anti-ulcer activity [6]: more markedly potent anti-ulcer activity as well as comparable anti-hepatitis and liver function improving activities
